Test results published in patent US20230410977A1, “METHODS AND MATERIALS FOR ASSESSING RADIATION EXPOSURE” (NUtech Ventures, priority 2020, published 2023).

What was measured:
[1] = test system: mice exposed to 9.6 Gy 60Co-γ-radiation; assay: Thirty-day survival of mice given amifostine before 9.6 Gy 60Co-γ-radiation (cohort 3); format: in vivo, mouse
Procedure: (§1) Cohort three comprised whole blood samples from mice exposed to a single dose of 9.6 Gy ^60Co-γ-radiation at a rate of 0.6 Gy/minute in the presence or absence of drug intervention (50 mg/kg or 200 mg/kg amifostine). A total of 300 blood samples were collected from 60 mice divided into five groups (12 mice per group). The five groups correspond to: (1) amifostine dosage of 50 mg/kg without radiation exposure, (2) amifostine dosage of 200 mg/kg without radiation exposure, (3) amifostine dosage of 50 mg/kg with radiation exposure, (4) amifostine dosage of 200 mg/kg with radiation exposure, and (5) a radiation exposure without an amifostine treatment. Blood samples were collected at five time-points: at day −5 (D−5), at time of amifostine dosage, day −1 (D−1), day 1 (D1), day 5 (D5) and day 9 (D9). Amifostine was delivered through a subcutaneous injection.
Lastly, to evaluate the radioprotective impact of amifostine treatment, cohort three also contained mice that received a subcutaneous injection of either 50 mg/kg or 200 mg/kg of amifostine 30 minutes (+10 minutes) before exposure to radiation. A total of 300 samples were collected from 60 mice divided into five groups (n=12): (1) 50 mg/kg amifostine treatment without radiation exposure (Am50), (2) 200 mg/kg amifostine treatment without radiation exposure (Am200), (3) only 9.6 Gy radiation exposure (RAD), (4) 9.6 Gy radiation exposure with a 50 mg/kg amifostine treatment (RAD+Am50), and (5) 9.6 Gy radiation exposure with a 200 mg/kg amifostine treatment (RAD+Am200). Serum samples were collected from each group at five different time points. Serum collected at five days and one day prior to radiation exposure were used as controls, and serum samples for metabolomics analysis were collected at 1, 5 and 9 days post-irradiation (Table 1).
Furthermore, an incremental decrease in survival began at day 11.

[2] = test system: mouse whole blood metabolome; assay: Combined NMR and LC-MS metabolomics of mouse whole blood, metabolic time trajectories (cohort 3); format: in vivo; settings: for NMR metabolic time trajectory of whole blood after radiation: PLS Q2 against D−5 baseline
Procedure: as §1
Mouse (n=236) and NHP (n=70) serum samples, and mouse blood samples (n=300) were simultaneously prepared for LC-MS and NMR analysis as shown in FIG. 1C. 2.0% by volume of NaN3 was added to each serum or blood sample to avoid bacterial growth. The protein component was precipitated by adding 100 μL (2×) of methanol to 50 μL of serum or blood. Deoxygenated methanol was used for the blood preparation to avoid unnecessary oxidation of the red blood cells. Methanol was purged of oxygen by bubbling in nitrogen gas for 30 minutes.
The 1:2 mixtures were then vortexed for 10 seconds. Serum samples were incubated at room temperature for 5 minutes. Blood samples were sonicated in a water bath for 10 minutes at 4° C., followed by incubation at −20° C. for 20 minutes. The samples were then centrifuged at 15,000×g for 20 minutes at 4° C. to pellet the proteins. The supernatant was collected, transferred to an Eppendorf tube, and centrifuged again at 15,000×g for 5 minutes at 4° C. The supernatant was then divided 20% and 80% for LC-MS and NMR samples, respectively. Samples were snap-frozen in liquid nitrogen. Methanol was evaporated by speed vacuum centrifugation (SpeedVac R Plus, Savant) and water was removed by lyophilization using FreeZone™ (Labconco, Kansas City, MO).
Dried serum or blood samples were reconstituted using 50 μL of 50 mM phosphate buffer in 100% D20 at pH 7.2 (uncorrected) with 50 μM TMSP as an NMR chemical shift reference and internal standard. The samples were centrifuged at 15,000×g for 20 minutes at 4° C. to remove any particulates, and the supernatant was transferred to 1.7 mm NMR tube for data acquisition. All NMR experiments were collected at 298K with a Bruker AVANCE III HD 700 MHz spectrometer equipped with a 5 mm quadruple resonance QCI-P cryoprobe (^1H, ^13C, ^15N and ^31P) with z-axis gradients. A SampleJet automated sample changer with Bruker ICON-NMR software was used to collect all data. […]

## NCCCNCCSP(=O)(O)O [amifostine, 2-(3-aminpropyl) aminoethylphosphorothioate]
[1]; amifostine 50 mg/kg subcutaneous, 30 minutes before 9.6 Gy, untreated irradiated animals 100% died
  survival at 30 days post-irradiation: 40%
[1]; amifostine 50 mg/kg, 9.6 Gy
  day at which incremental decrease in survival began: 11 days
[1]; amifostine 200 mg/kg subcutaneous, 30 minutes prior to 9.6 Gy, untreated irradiated animals 100% died
  animal survival 30 days post-irradiation: 100%
[2]; amifostine 50 mg/kg, 9.6 Gy
  NMR metabolic time trajectory of whole blood after radiation: could not be discriminated from untreated controls
[2]; amifostine 200 mg/kg, 9.6 Gy, p=1.60×10^−7
  NMR metabolic time trajectory of whole blood after radiation: reversed progression back towards the baseline norm (D−5) by D9
[2]; amifostine 200 mg/kg, between D5 and D9 after radiation exposure
  recovery of dysregulated metabolic pathways: recovery of pathways including lipid metabolism, glycolysis, and TCA activity as well as energy and amino acid metabolism
[2]; amifostine treatment, 9.6 Gy, p=2.10×10^−2
  LC-MS metabolic time trajectory of whole blood after radiation: divergence of trajectories from D5 to D9
